The values below come from US5620676A, “Biologically active ATP analogs” (priority 1995, dated 1997).

pEC50: −log10 of the molar value.

Usually pEC50 stands for the EC50 on a negative log10 scale, so that one unit is a factor of ten.

Test [1] has as its target T1, P2Y receptor (taenia coli) (Cavia porcellus, UniProt P59902).
T1 construct: Relaxant responses mediated via P2Y receptors were examined in guinea pig taenia coli; from tissue; host or cells: guinea pig taenia coli (carbachol-contracted)
The test is described as follows: Relaxation of carbachol-contracted guinea pig taenia coli. Put shortly: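 Guinea pig taenia coli precontracted with 50 nM carbachol; relaxation to applied P2Y agonists expressed as percentage relaxation against negative log molar agonist concentration.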

Test [2] has as its target P2Y receptor (mesenteric artery). The test is described as follows: Relaxation of rabbit mesenteric artery. Conditions: log molar units.
Excerpt: Muscular relaxation/contraction: Relaxant responses mediated via P2Y receptors were examined in guinea pig taenia coli, rabbit aorta, and rabbit mesenteric artery, as described by Hoyle et al. (Br. J. Pharmacol., 107, 367-374 (1992a)), Burnstock et al., (Br. J. Pharmacol., 90, 383-391 (1987a)), and Rubino et al., (Eur. J. Pharmacol., 212, 237-240 (1992)).
Test [3] has as its target T2, P2X receptor (saphenous artery) (Oryctolagus cuniculus, UniProt G1U3D6).
T2 construct: and rabbit saphenous artery; from tissue; host or cells: rabbit saphenous artery
T2 sequence (G1U3D6 1-399): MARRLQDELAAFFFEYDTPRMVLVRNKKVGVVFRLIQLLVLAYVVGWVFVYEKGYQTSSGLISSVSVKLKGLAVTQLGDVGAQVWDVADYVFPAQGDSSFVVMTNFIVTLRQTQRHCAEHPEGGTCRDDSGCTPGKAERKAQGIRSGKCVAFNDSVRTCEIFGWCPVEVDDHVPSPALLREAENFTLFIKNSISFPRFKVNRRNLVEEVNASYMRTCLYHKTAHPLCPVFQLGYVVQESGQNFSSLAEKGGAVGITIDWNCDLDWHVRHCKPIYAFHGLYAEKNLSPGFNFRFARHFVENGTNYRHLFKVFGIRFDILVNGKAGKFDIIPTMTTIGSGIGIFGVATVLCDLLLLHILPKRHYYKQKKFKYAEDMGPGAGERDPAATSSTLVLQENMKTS
The test is described as follows: Contraction of rabbit saphenous artery. The settings on record: rabbit saphenous artery; for activation at 10 µM: read-out: response at 10 μM relative to the contraction produced by 1 μM α,MeATP, saph. artery. Put shortly: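 Contraction of isolated rabbit saphenous artery, standard organ-bath methods; responses at 10 μM expressed as percentage of contraction produced by 1 μM α,MeATP. Highest analogue concentrations tested were 3-30 […].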

The target in test [4] is T3, adenylyl cyclase linked P2Y receptor (C6 rat glioma cells) (Rattus norvegicus, UniProt Q9EPX4).
T3 construct: endogenous in cells; host or cells: C6 rat glioma cells
T3 sequence (Q9EPX4 whole entry): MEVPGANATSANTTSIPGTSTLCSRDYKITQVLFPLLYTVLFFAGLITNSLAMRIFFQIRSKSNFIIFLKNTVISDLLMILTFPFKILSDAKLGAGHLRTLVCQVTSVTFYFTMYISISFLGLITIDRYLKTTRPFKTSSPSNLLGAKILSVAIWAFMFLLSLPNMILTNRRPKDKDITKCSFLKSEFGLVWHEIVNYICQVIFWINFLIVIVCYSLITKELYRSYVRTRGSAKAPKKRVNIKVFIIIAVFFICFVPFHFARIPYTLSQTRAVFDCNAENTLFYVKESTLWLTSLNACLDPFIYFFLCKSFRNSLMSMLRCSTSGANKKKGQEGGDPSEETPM
The test can be described thus: Inhibition of adenylyl cyclase in C6 rat glioma cells. Conditions: for selectivity for the adenylyl cyclase linked (C6 cell) receptor: versus phospholipase C linked turkey erythrocyte receptor. It counts as cell-based. Put shortly: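 C6 cells labelled 2 h with [3H]adenine, preincubated 10 min at 37 °C in HEPES-buffered Eagle's medium (pH 7.5) with 200 μM IBMX. Stimulated 10 min with 10 μM isoproterenol plus varied nucleotide concentrations. Stopped with ice-cold 5% trichloroacetic acid.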

T1 sequence (P59902 whole entry): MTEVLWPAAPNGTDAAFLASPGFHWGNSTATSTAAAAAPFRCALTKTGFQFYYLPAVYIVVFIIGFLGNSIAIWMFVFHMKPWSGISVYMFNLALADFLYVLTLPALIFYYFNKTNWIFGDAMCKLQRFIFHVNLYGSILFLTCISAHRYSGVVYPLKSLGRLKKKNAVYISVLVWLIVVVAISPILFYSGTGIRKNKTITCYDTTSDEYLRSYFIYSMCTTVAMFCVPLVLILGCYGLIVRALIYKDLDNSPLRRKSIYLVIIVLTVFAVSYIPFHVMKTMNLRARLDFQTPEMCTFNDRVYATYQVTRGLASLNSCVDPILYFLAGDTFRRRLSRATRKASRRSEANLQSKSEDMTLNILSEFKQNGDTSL

The molecule `N#CCCCCCCSc1nc(N)c2ncn([C@@H]3O[C@H](COP(=O)(O)OP(=O)(O)OP(=O)(O)O)[C@@H](O)[C@H]3O)c2n1` [2-(6-Cyanohexylthio)-ATP, 2-(6-Cyanohexylthio)adenosine-5'-triphosphate] showed a pEC50 in test [1] of 8.80. For the same molecule, in test [2], the “relaxation pD2, mes. artery” value came out at 7.0. In test [3], the “activity/potency in words, saphenous artery” value was “at best weak agonists in the saphenous artery” and the activation at 10 µM was 9.2%. In addition, in test [4], the “selectivity for the adenylyl cyclase linked (C6 cell) receptor” value is on record as 3.9 -fold.

For `C=CCCCCSc1nc(NC)c2ncn([C@@H]3O[C@H](COP(=O)(O)OP(=O)(O)OP(=O)(O)O)[C@@H](O)[C@H]3O)c2n1` [N^6 -Me-2-(5-hexenyl)-thio-ATP, N^6 -Me-2-(5-hexenylthio)adenosine 5'-triphosphate], the “relaxation pD2, taenia coli” value in test [1] (guinea pig taenia coli, log molar units) worked out at 7.2. Also, the “relaxation pD2, mes. artery” value in test [2] amounted to 6.0. The activation at 10 µM in test [3] worked out at 1.5%. For the same molecule, in test [4] (C6 rat glioma cells, 10 μM isoproterenol, read-out: K0.5 values (in nM) for inhibition of adenylyl cyclase in C6 cells), the IC50 is 0.32 nM. In addition, the “selectivity for the adenylyl cyclase linked (C6 cell) receptor” value in test [4] is recorded as 81 -fold.
